Holding throughout (assay type): biochemical
The target of one test is T1, human thrombin (Homo sapiens, UniProt P00734).
T1 construct: purchased Enzyme Research Laboratories, South Bend, Ind
As to the kind of experiment: Inhibition of human thrombin (chromogenic substrate S2238), inhibitory constant Ki. Conditions: 0.2-0.5 nM human thrombin, S2238, pH 7.5, 30 minutes; read-out: Ki values for inhibition of Serine Proteases: Thrombin. As for the experimental part: (§1) The effectiveness of compounds of the present invention as inhibitors of blood coagulation proteases was determined using purified human proteases and synthetic substrates following procedures similar to those described in Kettner et al. (1990).
(§2) For these assays, the rate of enzymatic (thrombin, Factor Xa, and Factor VIIa) hydrolysis of chromogenic substrates (S2238 (H-D-Phe-Pip-Arg-pNA), S2222, and S2288, respectively; Kabi Pharmacia, Franklin, Ohio.) was measured both in the absence and presence of compounds of the present invention. […] A decrease in the rate of absorbance change at 405 nm in the presence of inhibitor is indicative of enzyme inhibition. The results of this assay are expressed as inhibitory constant, Ki.
(§3) Thrombin and Xa determinations were made in 0.10M sodium phosphate buffer, pH 7.5, containing 0.20M NaCl, and 0.5% PEG 8000. VIIa determinations were made in 0.05M tris buffer, pH 7.6, containing 0.10M NaCl, 4 mM CaCl2, and 0.1% bovine serum albumin. The Michaelis constant, Km, for substrate hydrolysis was determined at 5° C. using the method of Lineweaver and Burk.
(§4) Values of Ki were determined by allowing 0.2-0.5 nM human thrombin or human factor Xa (Enzyme Research Laboratories, South Bend, Ind.), or 50 nM human factor VIIa (BiosPacific, Emeryville, Calif.) react with the substrate (0.20 mM-1 mM) in the presence of inhibitor. Reactions were allowed to go for 30 minutes and the velocities (rate of absorbance change vs time) were measured in the time frame of 25-30 minutes. The following relationship was used to calculate Ki values. [formula] where: vo is the velocity of the control in the absence of inhibitor;
(§5) vs is the velocity in the presence of inhibitor;
(§6) I is the concentration of inhibitor;
(§7) Ki is the dissociation constant of the enzyme: inhibitor complex;
(§8) S is the concentration of substrate;
(§9) Km is the Michaelis constant.

The next test has as its target T2, human factor Xa (Homo sapiens, UniProt P00742).
T2 construct: purchased Enzyme Research Laboratories, South Bend, Ind
As to the kind of experiment: Inhibition of human factor Xa (chromogenic substrate S2222), inhibitory constant Ki. Conditions: S2222, pH 7.5, 30 minutes, read-out: Ki values for inhibition of Serine Proteases: Factor Xa. The method, then:
as §1, §2, §3, §4, §5, §6, §7, §8, §9

For a further test, the target named is T3, human factor VIIa (Homo sapiens, UniProt P08709).
T3 construct: Factor VIIa in the extrinsic pathway; purchased BiosPacific, Emeryville, Calif
T3 sequence (P08709 213-466 limits assumed): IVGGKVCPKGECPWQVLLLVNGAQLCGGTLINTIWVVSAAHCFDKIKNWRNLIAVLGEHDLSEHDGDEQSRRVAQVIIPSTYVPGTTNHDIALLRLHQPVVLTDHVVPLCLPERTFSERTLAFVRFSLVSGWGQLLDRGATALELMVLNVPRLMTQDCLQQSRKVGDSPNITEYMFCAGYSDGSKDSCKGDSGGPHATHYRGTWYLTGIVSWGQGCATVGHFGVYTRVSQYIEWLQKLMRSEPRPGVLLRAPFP
T3 sequence (P08709 61-212 partner limits assumed): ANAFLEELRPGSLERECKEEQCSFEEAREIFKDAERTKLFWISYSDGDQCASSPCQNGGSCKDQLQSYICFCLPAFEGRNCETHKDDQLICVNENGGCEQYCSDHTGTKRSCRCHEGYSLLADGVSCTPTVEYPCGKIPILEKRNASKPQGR
Kind of test: Inhibition of human factor VIIa (chromogenic substrate S2288), inhibitory constant Ki. The method, then: as §1, §2, §3, §4, §5, §6, §7, §8, §9

Where [1] appears, read: 50 nM human factor VIIa, S2288, pH 7.6, 4 mM CaCl2, 30 minutes, read-out: Ki values for inhibition of Serine Proteases: Factor VIIa.

Counter-ions that a name gives are not always drawn. Like-named read-outs stand apart in the source and are kept apart here.

T2 sequence (P00742 235-488 limits assumed): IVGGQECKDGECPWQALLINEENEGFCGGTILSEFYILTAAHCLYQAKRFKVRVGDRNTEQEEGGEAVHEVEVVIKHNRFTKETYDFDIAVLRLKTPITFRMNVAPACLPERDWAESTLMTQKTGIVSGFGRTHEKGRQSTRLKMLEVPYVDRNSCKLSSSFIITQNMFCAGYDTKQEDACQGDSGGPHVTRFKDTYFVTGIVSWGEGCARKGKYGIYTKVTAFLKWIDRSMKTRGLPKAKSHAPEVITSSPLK
T2 sequence (P00742 41-179 partner limits assumed): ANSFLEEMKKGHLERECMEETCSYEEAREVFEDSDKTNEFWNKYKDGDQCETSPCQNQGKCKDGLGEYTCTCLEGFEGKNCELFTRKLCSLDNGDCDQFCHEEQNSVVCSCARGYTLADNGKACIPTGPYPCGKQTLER

`CSCc1nc(Cc2ccccc2)n(CC(=O)N[C@@H](CCCCN)B2O[C@@H]3C[C@@H]4C[C@@H](C4(C)C)[C@]3(C)O2)n1` [Example 892]: the Ki (commonly a dissociation constant, usually derived from enzyme kinetics or from competition with a known ligand) on human thrombin was < 500 nM; at human factor Xa it was 500 to 50000 nM; at human factor VIIa (setting [1]), 500 to 50000 nM.

As for `CC1(C)[C@@H]2C[C@H]3OB([C@H](CCCCN)NC(=O)Cn4nc(CC#N)nc4Cc4ccccc4)O[C@@]3(C)[C@H]1C2` [Example 898, R-N^1-(3-Cyanomethyl-5-phenylmethyl-1,2,4-triazol-1-yl)acetyl-borolysine, (+)-pinanediol ester, hydrochloride], the Ki at human thrombin was < 500 nM; on human factor Xa it was 500 to 50000 nM; on human factor VIIa, 500 to 50000 nM.

In the case of `CC1(C)[C@@H]2C[C@H]3OB([C@H](CCCCN)NC(=O)Cn4nc(CC(=O)O)nc4Cc4ccccc4)O[C@@]3(C)[C@H]1C2` [Example 905], the Ki at human thrombin is < 50000 nM; at human factor Xa, 500 to 50000 nM; on human factor VIIa (setting [1]) it was > 500000 nM.

Consider `CC1(C)[C@@H]2C[C@H]3OB([C@H](CCCCN)NC(=O)Cn4nc(CO)nc4Cc4ccccc4)O[C@@]3(C)[C@H]1C2` [Example 913], for which the Ki on human thrombin was < 500 nM; on human factor Xa it was > 500000 nM; at human factor VIIa (setting [1]), 500 to 50000 nM.

For the compound `CC1(C)[C@@H]2C[C@H]3OB([C@H](CCCCN)NC(=O)Cn4nc(COCc5ccccc5)nc4Cc4ccccc4)O[C@@]3(C)[C@H]1C2` [Example 914], the results for the Ki at human thrombin, on human factor Xa and on human factor VIIa (setting [1]) were < 500 nM, 500 to 50000 nM and 500 to 50000 nM, respectively.

On to `COC(=O)Cc1nc(Cc2ccccc2)n(CC(=O)N[C@@H](CCCCN)B2O[C@@H]3C[C@@H]4C[C@@H](C4(C)C)[C@]3(C)O2)n1` [Example 917], for which the Ki at human thrombin is < 500 nM; at human factor Xa, 500 to 50000 nM; at human factor VIIa (setting [1]) it was 500 to 50000 nM.

Take `CC1(C)[C@@H]2C[C@H]3OB([C@H](CCCCN)NC(=O)Cn4nc(Cc5ccccc5)nc4Cc4ccccc4)O[C@@]3(C)[C@H]1C2` [Example 921]: the inhibition constant (Ki) was < 500 nM on human thrombin, 500 to 50000 nM on human factor Xa and 500 to 50000 nM at human factor VIIa.

As to `CC1(C)[C@@H]2C[C@H]3OB([C@H](CCCCN)NC(=O)Cn4nc(-c5cccc([N+](=O)[O-])c5)nc4Cc4ccccc4)O[C@@]3(C)[C@H]1C2` [Example 923], the Ki on human thrombin was < 500 nM; at human factor Xa it was 500 to 50000 nM; on human factor VIIa, 500 to 50000 nM.

For `CC1(C)[C@@H]2C[C@H]3OB([C@H](CCCCN)NC(=O)Cn4nc(-c5cccc(N)c5)nc4Cc4ccccc4)O[C@@]3(C)[C@H]1C2` [Example 931], the Ki at human thrombin is < 500 nM; on human factor Xa, 500 to 50000 nM; at human factor VIIa it was 500 to 50000 nM.

Turning to `COC(=O)Cc1nc(Cc2ccccc2)nn1CC(=O)N[C@@H](CCCCN)B1OC2CC3CC(C3(C)C)C2(C)O1` (stereo partly drawn) [Example 2443], the Ki at human thrombin was < 500 nM; at human factor Xa it was 500 to 50000 nM; at human factor VIIa (setting [1]), 500 to 50000 nM.

Consider `CC1(C)C2CC3OB([C@H](CCCCN)NC(=O)Cn4nc(Cc5ccccc5)nc4-c4ccccc4)OC3(C)C1C2` (stereo partly drawn) [Example 2446], for which the results for the Ki at human thrombin, on human factor Xa and on human factor VIIa (setting [1]) were < 500 nM, 500 to 50000 nM and 500 to 50000 nM, respectively.

Regarding `CC1(C)C2CC3OB([C@H](CCCCN)NC(=O)Cn4nc(Cc5ccccc5)nc4Cc4ccccc4)OC3(C)C1C2` (stereo partly drawn) [Example 2447], the Ki at human thrombin is < 500 nM; on human factor Xa it was 500 to 50000 nM; at human factor VIIa (setting [1]), 500 to 50000 nM.

`NCCCC[C@H](NC(=O)Cn1cnc(Cc2ccccc2)n1)B(O)O` [Example 2499]: the values for the Ki at human thrombin, on human factor Xa and on human factor VIIa (setting [1]) were < 500 nM, 500 to 50000 nM and 500 to 50000 nM, respectively.

Consider `NCCCC[C@H](NC(=O)Cn1nc(Cc2ccccc2)nc1-c1ccccc1)B(O)O` [Example 2533], for which the Ki at human thrombin is < 500 nM; at human factor Xa, 500 to 50000 nM; on human factor VIIa (setting [1]), > 500000 nM.

Take `Cc1nc(-c2ccccc2)ncc1C(=O)N[C@@H](CCCCN)B1O[C@@H]2C[C@@H]3C[C@@H](C3(C)C)[C@]2(C)O1` [Example 3458, R-N^1-((2-phenyl-4-methylpyrimidin-5-yl)carbonyl)borolysine, (+)-pinanediol ester, hydrochloride]: the Ki on human thrombin is < 500 nM; at human factor Xa, > 500000 nM; on human factor VIIa (setting [1]), 500 to 50000 nM.

For `Cc1nc(-c2ccccc2)ncc1C(=O)N[C@@H](CCCNC(=N)N)B1O[C@@H]2C[C@@H]3C[C@@H](C3(C)C)[C@]2(C)O1` [Example 3538, R-N^1-((2-phenyl-4-methylpyrimidin-5-yl)carbonyl)boroarginine, (+)-pinanediol ester, hydrochloride], the Ki at human thrombin is < 500 nM; at human factor Xa, 500 to 50000 nM; on human factor VIIa (setting [1]), 500 to 50000 nM.

For the origin of these results see patent US5698538A, “Boronic acid and ester inhibitors of thrombin” (The DuPont Merck Pharmaceutical Company, priority 1996, dated 1997).
